Test results published in PubChem BioAssay AID248 (DTP/NCI, 2004).
Several values for one entry are separate records, joined by “and”; a condition that tells them apart may be missing. Equal values may be shown once. Inconclusive results and toxic doses are left out. Rule as the data show it: active = T/C of 150% or more; inactive = T/C below 125%.

System: L1210 leukemia ip in BDF1 mice, survival T/C
Assay: NCI In Vivo Anticancer Drug Screen. Data for tumor model L1210 Leukemia (intraperitoneal) in B6D2F1 (BDF1) mice
Settings: endpoint: mean survival time, higher = longer survival
How it was run: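 In this screen, tumor-bearing mice given compound are compared to those given vehicle, and their survival values are reported as a treated-to-control quotient.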

[1] = dose: 100.0 mg/kg/injection, schedule: Q01DX009 (ip), vehicle: Klucel (hydroxypropylcellulose) (HPC)
[2] = dose: 100.0 mg/kg/injection, schedule: Q04DX003 (ip), vehicle: Klucel (hydroxypropylcellulose) (HPC)
[3] = dose: 200.0 mg/kg/injection, schedule: Q01DX009 (ip), vehicle: Klucel (hydroxypropylcellulose) (HPC)
[4] = dose: 200.0 mg/kg/injection, schedule: Q04DX003 (ip), vehicle: Klucel (hydroxypropylcellulose) (HPC)
[5] = dose: 400.0 mg/kg/injection, schedule: Q01DX009 (ip), vehicle: Klucel (hydroxypropylcellulose) (HPC)
[6] = dose: 400.0 mg/kg/injection, schedule: Q04DX003 (ip), vehicle: Klucel (hydroxypropylcellulose) (HPC)
[7] = dose: 100.0 mg/kg/injection, schedule: Q04DX003 (ip), vehicle: saline with Tween-80
[8] = dose: 100.0 mg/kg/injection, schedule: Q04DX003 (ip), vehicle: saline
[9] = dose: 200.0 mg/kg/injection, schedule: Q04DX003 (ip), vehicle: saline with Tween-80
[10] = dose: 200.0 mg/kg/injection, schedule: Q04DX003 (ip), vehicle: saline
[11] = dose: 400.0 mg/kg/injection, schedule: Q04DX003 (ip), vehicle: saline with Tween-80
[12] = dose: 400.0 mg/kg/injection, schedule: Q04DX003 (ip), vehicle: saline
[13] = dose: 100.0 mg/kg/injection, schedule: Q01DX009 (ip), vehicle: saline
[14] = dose: 200.0 mg/kg/injection, schedule: Q01DX009 (ip), vehicle: saline
[15] = dose: 100.0 mg/kg/injection, schedule: Q01DX001 (ip), vehicle: saline
[16] = dose: 100.0 mg/kg/injection, schedule: Q01DX001 (ip), vehicle: carboxymethylcellulose (CMC)
[17] = dose: 200.0 mg/kg/injection, schedule: Q01DX001 (ip), vehicle: carboxymethylcellulose (CMC)
[18] = dose: 400.0 mg/kg/injection, schedule: Q01DX001 (ip), vehicle: carboxymethylcellulose (CMC)
[19] = dose: 100.0 mg/kg/injection, schedule: Q01DX009 (ip), vehicle: saline with Tween-80
[20] = dose: 200.0 mg/kg/injection, schedule: Q01DX009 (ip), vehicle: saline with Tween-80
[21] = dose: 150.0 mg/kg/injection, schedule: Q01DX001 (ip), vehicle: carboxymethylcellulose (CMC)
[22] = dose: 300.0 mg/kg/injection, schedule: Q01DX001 (ip), vehicle: carboxymethylcellulose (CMC)

Measured: T/C

CCCCCCNc1c([N+](=O)[O-])cc(C)cc1[N+](=O)[O-]
inactive: [1] 100 % of control | [2] 103 % of control | [3] 111 % of control | [4] 116 % of control | [5] 96 % of control | [6] 108 % of control

Cc1cc(C)c(NC(=S)NC(=O)c2ccccc2)cc1C
inactive: dose: 100.0 mg/kg/injection, schedule: Q04DX002 (ip), vehicle: gum acacia 88 % of control | dose: 200.0 mg/kg/injection, schedule: Q04DX002 (ip), vehicle: gum acacia 100 % of control | dose: 400.0 mg/kg/injection, schedule: Q04DX002 (ip), vehicle: gum acacia 96 % of control

CCCNC(=O)C1C2CC3OC(=O)C1C3C2 (stereo unspecified)
inactive: [7] 90 % of control | [8] 98 % of control | [9] 95 % of control | [10] 91 % of control | [11] 93 % of control | [12] 102 % of control

CC1=NC(C(=O)O)C(=O)O1 (stereo unspecified)
inactive: [13] 98 % of control | [8] 105 % of control | [14] 93 % of control | [10] 97 % of control | [12] 103 % of control

CCOC(=O)/C=C\CBr
inactive: dose: 4.0 mg/kg/injection, schedule: Q01DX015 (ip), vehicle: carboxymethylcellulose (CMC) 95 % of control | dose: 8.0 mg/kg/injection, schedule: Q01DX015 (ip), vehicle: carboxymethylcellulose (CMC) 93 % of control | dose: 16.0 mg/kg/injection, schedule: Q01DX015 (ip), vehicle: carboxymethylcellulose (CMC) 93 % of control | dose: 32.0 mg/kg/injection, schedule: Q01DX015 (ip), vehicle: carboxymethylcellulose (CMC) 101 % of control | [15] 104 % of control

CC1=C(c2ccccc2)C(c2ccccc2)=C(C)C1=O
inactive: dose: 50.0 mg/kg/injection, schedule: Q01DX001 (ip), vehicle: carboxymethylcellulose (CMC) 97 % of control | [16] 95 % of control | [17] 89 % of control | [18] 95 % of control

COc1cccc(CO)c1-c1c(CO)cccc1OC
inactive: [8] 95 % of control | [10] 97 % of control | [12] 97 % of control

NCCCc1c(-c2ccccc2)nc(N)[nH]c1=O
inactive: dose: 50.0 mg/kg/injection, schedule: Q01DX001 (ip), vehicle: saline 108 % of control | [15] 110 % of control | dose: 200.0 mg/kg/injection, schedule: Q01DX001 (ip), vehicle: saline 98 % of control

Cc1cccc(Cl)c1NC(=S)NCc1ccco1
inactive: [1] 98 % of control | [3] 98 % of control | [5] 102 % of control

CSC(=N)c1cccc(OCCCc2ccccc2)c1
inactive: dose: 25.0 mg/kg/injection, schedule: Q01DX009 (ip), vehicle: saline with Tween-80 92 % of control | dose: 50.0 mg/kg/injection, schedule: Q01DX009 (ip), vehicle: saline with Tween-80 92 % of control | [19] 101 % of control | [20] 93 % of control

C=CCNC(=S)Nc1cc(Cl)ccc1C
inactive: [1] 90 % of control | [2] 92 % of control | [3] 86 % of control | [4] 100 % of control | [6] 95 % of control

Cc1ccc(C(=O)/C=C/c2cccc3ccccc23)cc1
inactive: [19] 102 % of control | dose: 100.0 mg/kg/injection, schedule: Q04DX002 (ip), vehicle: saline with Tween-80 97 % of control | [20] 96 % of control | dose: 200.0 mg/kg/injection, schedule: Q04DX002 (ip), vehicle: saline with Tween-80 97 % of control | dose: 400.0 mg/kg/injection, schedule: Q01DX009 (ip), vehicle: saline with Tween-80 96 % of control | dose: 400.0 mg/kg/injection, schedule: Q04DX002 (ip), vehicle: saline with Tween-80 94 % of control

O=c1[nH]nc(S(=O)(=O)NC2CCCCC2)c(=O)[nH]1
inactive: [16] 101 % of control | [17] 95 % of control | [18] 110 % of control

COc1cc(C=Nc2cc(Cl)c(OC)c(Cl)c2)ccc1N(CCCl)CCCl
inactive: dose: 26.0 mg/kg/injection, schedule: Q01DX001 (ip), vehicle: carboxymethylcellulose (CMC) 121 % of control | dose: 26.0 mg/kg/injection, schedule: Q01DX009 (ip), vehicle: carboxymethylcellulose (CMC) 120 % of control | dose: 29.0 mg/kg/injection, schedule: Q01DX001 (ip), vehicle: carboxymethylcellulose (CMC) 118 % of control | dose: 40.0 mg/kg/injection, schedule: Q01DX009 (ip), vehicle: carboxymethylcellulose (CMC) 94 % of control | dose: 44.0 mg/kg/injection, schedule: Q01DX001 (ip), vehicle: carboxymethylcellulose (CMC) 114 % of control | [21] 121 % of control | dose: 225.0 mg/kg/injection, schedule: Q01DX001 (ip), vehicle: carboxymethylcellulose (CMC) 122 % of control | [22] 122 % of control

C[N+](C)(C)CCS(=O)(=O)Cc1ccccc1
inactive: dose: 75.0 mg/kg/injection, schedule: Q01DX001 (ip), vehicle: carboxymethylcellulose (CMC) 110 % of control | [21] 108 % of control | [22] 96 % of control

CCSCCOC(=S)Nc1ccccc1
inactive: [2] 98 % of control | [4] 97 % of control | [6] 92 % of control

O=C(/C=C/C(=O)Oc1ccc(Cl)cc1Cl)Oc1ccc(Cl)cc1Cl
inactive: [1] 94 % of control | [2] 111 % of control | [3] 95 % of control | [4] 100 % of control | [5] 97 % of control | [6] 100 % of control

[O-][N+]1=CCCC1
inactive: [13] 89 % of control | [8] 104 % of control | [14] 91 % of control | [10] 107 % of control | dose: 400.0 mg/kg/injection, schedule: Q01DX009 (ip), vehicle: saline 92 % of control | [12] 105 % of control

COc1ccccc1C(=Nc1ccccc1)N(O)c1ccccc1
inactive: dose: 2.5 mg/kg/injection, schedule: Q01DX009 (ip), vehicle: saline with Tween-80 93 % of control | dose: 5.0 mg/kg/injection, schedule: Q01DX009 (ip), vehicle: saline with Tween-80 103 % of control

C/C=C/C(=O)Nc1cccc(C(F)(F)F)c1
inactive: dose: 25.0 mg/kg/injection, schedule: Q01DX009 (ip), vehicle: other 92 % of control | dose: 50.0 mg/kg/injection, schedule: Q01DX009 (ip), vehicle: other 102 % of control | dose: 100.0 mg/kg/injection, schedule: Q01DX009 (ip), vehicle: other 92 % of control and 95 % of control

NC(=O)N/N=C/c1ccccc1
inactive: [1] 96 % of control | dose: 100.0 mg/kg/injection, schedule: Q04DX002 (ip), vehicle: Klucel (hydroxypropylcellulose) (HPC) 89 % of control | [3] 96 % of control | dose: 200.0 mg/kg/injection, schedule: Q04DX002 (ip), vehicle: Klucel (hydroxypropylcellulose) (HPC) 100 % of control | [5] 111 % of control | dose: 400.0 mg/kg/injection, schedule: Q04DX002 (ip), vehicle: Klucel (hydroxypropylcellulose) (HPC) 104 % of control

CC1=Nc2cc(C)c(C)cc2N=C(C)C1
inactive: [1] 96 % of control | [2] 93 % of control | [3] 98 % of control | [4] 97 % of control

Cc1ccc(-n2c(=O)c(N=Nc3ccc(Cl)cc3)c(O)n(-c3ccccc3Cl)c2=S)cc1
inactive: dose: 25.0 mg/kg/injection, schedule: Q01DX001 (ip), vehicle: Klucel (hydroxypropylcellulose) (HPC) 97 % of control | dose: 50.0 mg/kg/injection, schedule: Q01DX001 (ip), vehicle: Klucel (hydroxypropylcellulose) (HPC) 101 % of control | dose: 100.0 mg/kg/injection, schedule: Q01DX001 (ip), vehicle: Klucel (hydroxypropylcellulose) (HPC) 92 % of control

N=C(OC1CCCCC1)N1CCOCC1
inactive: dose: 22.0 mg/kg/injection, schedule: Q01DX Z (ip), vehicle: saline 100 % of control | dose: 33.0 mg/kg/injection, schedule: Q01DX Z (ip), vehicle: saline 102 % of control | dose: 50.0 mg/kg/injection, schedule: Q01DX Z (ip), vehicle: saline 106 % of control

C(/C=C/c1ccccc1)=Nc1ccc(CCc2ccc(N=C/C=C/c3ccccc3)cc2)cc1
inactive: [7] 91 % of control | [9] 92 % of control | [11] 92 % of control
